Results taken from patent publication US12427346B2, “P62 ligand compound, and composition for preventing, ameliorating or treating proteinopathies comprising the same” (AUTOTAC INC., priority 2018, dated 2025).

Legend:
[1] = system: LC3; experiment: Autophagy activity in cultured cells by immunoblotting, concentration series (Experimental Example 2); format: cell-based, human; details: HeLa cells; 1, 2, 5, 10 and 20 μM, 24 hours; immunoblot, FIG. 3
Description: In order to evaluate the autophagy activity efficacy by the compounds (Examples 1-25), HeLa cell line, which is a cell line derived from a cervical cancer patient, was cultured using a DMEM medium containing 10% FBS and 1% streptomycin/penicillin in an incubator with 5% carbon dioxide. As the representative compounds among the present compounds, the compounds of Examples 1, 2, 3, 5, 6, 7, 8, 9, 12 and 13 (Example 5 (YTK-1005), Example 1 (YTK-1105), Example 6 (YTK-1205), Example 7 (YTK-1305), Example 2 (YTK-2205), Example 3 (YTK-3305), Example 8 (YTK-105), Example 9 (YTK-205), Example 14 (YTK-1108), Example 12 (YT 5-7), Example 13 (YT 5-8)), Example 20 (ATB10041), Example 21 (ATB10042), Example 22 (ATB10043), Example 23 (ATB10044), Example 24 (ATB10045), and Example 25 (ATB10046)) were selected. In order to measure autophagy activity according to the treatment with these selected representative compounds, the respective cells were dispensed into 6 well plates. Additional cultures were performed for 24 hours so that the cells were completely attached to the surface of the plate. To find the concentration at which the respective compounds could increase the phenomenon of autophagy, the test compounds were diluted at 1, 2, 5, 10 and 20 μM and treated. After treatment with the respective compounds, the cells were cultured again in a cell incubator for 24 hours, and then the cells were collected. To extract proteins from the collected cells, 100 ul of lysis buffer (20 mM Tris (pH 7.4), 150 mM NaCl, 1% Triton X-100, 2 mM NaF, 2 mM EDTA, 2 mM beta-glycerophosphate, 5 mM sodium orthovanadate, 1 mM PMSF, leupeptin, aprotinin) was injected into each sample, and cells were lysed. Based on the measured total protein concentration, a sample buffer was added to each sample and allowed to react at 100° C. for 5 minutes. 5 ul was taken from the samples after the reaction, and dispensed into each well of acrylamide gel, and then immunoblotting was performed.

[2] = system: p62 and LC3; experiment: Autophagy activity by immunofluorescence staining and confocal microscopy (Experimental Example 5); format: cell-based, human; details: HeLa cells, 5 uM, 24 hours, FIG. 6
Description: In order to confirm the p62 protein activity and the activity level of autophagy phenomenon by the compounds (Examples 1-25), immunofluorescence staining was performed using p62 and LC3 as markers. In order to confirm the p62 activity and the activity level of autophagy phenomenon by new p62 ligands and isomers thereof in cultured cells, HeLa cell line, which is a cell line derived from cervical cancer patient, was treated with the novel p62 ligand compounds (YTK-1205, YTK-1305, YTK-2205, YTK-3305, YTK-105, YTK-205, YT 5-1, YT 9-1, YT 5-2, YT 9-2, YT 8-2, YT 8-1, YTK-107, YTK-207) and cultured. Thereafter, as markers of the autophagy phenomenon, the expression level and location of LC3 puncta and the local co-existence with p62 puncta were observed.
For immunofluorescence staining, a cover glass was placed on a 24-well plate, cells were dispensed, cultured for 24 hours, and then treated with 5 uM of the novel p62 ligands according to the present invention. For the action of the compounds, additional cultures were performed for 24 hours, and then the medium was removed. Cells were fixed using formaldehyde at room temperature. In order to prevent non-specific staining, the cells were allowed to react with a blocking solution at room temperature for 1 hour, and then treated with LC3 antibody diluted at a certain ratio using the blocking solution, and allowed to reacted at room temperature for 1 hour. The antibody-treated cells were washed three times with PBS, and goat-derived secondary antibody was diluted at a certain ratio using the blocking solution, and then allowed to react at room temperature for 30 minutes. The cells were washed again with PBS three times, and for intracellular nuclear staining, the expression level, intracellular puncta formation and intracellular coexistence level of p62 and LC3 were observed through a confocal microscopy after DAPI staining.

[3] = system: LC3; experiment: Autophagy activity in cultured cells by immunoblotting, treatment time (Experimental Example 3); format: cell-based, human; details: HeLa cells; 5 μM for 1, 3, 6, 12, 24, 48 hours or 10 μM for 24 hours; immunoblot, FIG. 4
Description: In order to investigate the autophagy activity efficacy by the compounds (Examples 1-25), immunoblotting was performed in the same manner as in Experimental Example 2 using LC3 as a marker. As for the difference, in order to evaluate the treatment time required for activation and the activity retention time, 5 μM of the representative compounds selected among the present compounds (Example 5 (YTK-1005), Example 6 (YTK-1205), Example 7 (YTK-1305), Example 2 (YTK-2205), Example 3 (YTK-3305), Example 14 (YTK-1108), Example 8 (YTK-105), Example 9 (YTK-205)) were treated for 1, 3, 6, 12, 24, 48 hours. On the other hand, 10 μM of the representative compounds selected among the present compounds (Example 10 (YT 5-1), Example 11 (YT 5-2), Example 16 (YT 8-8), Example 15 (YT 8-7), Example 17 (YTK-107), Example 18 (YTK-207), Example 20 (ATB10041), Example 21 (ATB10042), Example 22 (ATB10043), Example 23 (ATB10044), Example 24 (ATB10045), Example 25 (ATB10046)) were treated for 24 hours.

[4] = molecular target: T1, p62 protein (Homo sapiens, UniProt Q13501); experiment: Oligomerization activity of p62 protein by immunoblotting (Experimental Example 1); format: cell-based; details: HEK293 cell lysate treated with test compounds at room temperature for 2 hours; immunoblot, FIG. 2
T1 construct: endogenous in cells; host or cells: HEK293 (lysate treated with compounds)
Source text: In order to evaluate the p62 protein oligomerization activity efficacy by the compounds (Examples 1-25), HEK293 cell line, which is human embryonic kidney-derived cell, was collected. As the representative compounds among the present compounds, the compounds of Examples 1, 2, 3, 5, 6, 7, 8, 9, 12, and 13 (Example 10 (YT-5-1), Example 11 (YT-5-2), Example 12 (YT 5-7), Example 13 (YT 5-8), Example 15 (YT-8-7), Example 16 (YT-8-8), Example 17 (YTK-107), Example 18 ([…]), Example 20 (ATB10041), Example 21 (ATB10042), Example 22 (ATB10043), Example 23 (ATB10044), Example 24 (ATB10045) and Example 25 (ATB10046)) were selected. In order to measure intracellular p62 protein activation and oligomerization according to the treatment with these selected representative compounds, the respective cells were dispensed into a 100 pi dish. The cells were collected after further culturing for 24 hours so that the cells were completely attached to the surface of the plate. 100 ul of lysis buffer (20 mM Tris, pH 7.4), 150 mM NaCl, 1% Triton X-100, 2 mM NaF, 2 mM EDTA, 2 mM beta-glycerophosphate, 5 mM sodium orthovanadate, 1 mM PMSF, leupeptin, aprotinin) were injected into each sample and the cells were lysed. Based on the measured total protein concentration, each sample was treated with test compounds at room temperature for 2 hours, and then a sample buffer was added and allowed to react at 95° C. for 10 minutes. 25 ul was taken from the samples after the reaction, and dispensed into each well of acrylamide gel, and then immunoblotting was performed.

T1 sequence (Q13501 whole entry): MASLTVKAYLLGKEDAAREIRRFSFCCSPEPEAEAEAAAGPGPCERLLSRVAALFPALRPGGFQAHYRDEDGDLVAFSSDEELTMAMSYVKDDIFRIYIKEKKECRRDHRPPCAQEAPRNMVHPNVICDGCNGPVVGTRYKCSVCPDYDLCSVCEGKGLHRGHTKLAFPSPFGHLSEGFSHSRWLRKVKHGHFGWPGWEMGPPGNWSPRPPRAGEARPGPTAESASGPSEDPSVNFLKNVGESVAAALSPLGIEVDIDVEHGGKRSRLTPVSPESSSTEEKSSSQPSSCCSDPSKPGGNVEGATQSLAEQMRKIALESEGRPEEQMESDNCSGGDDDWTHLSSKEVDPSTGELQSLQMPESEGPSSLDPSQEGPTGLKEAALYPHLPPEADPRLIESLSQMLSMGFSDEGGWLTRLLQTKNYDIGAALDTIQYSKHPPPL

| SMILES | autophagy activity (level of LC3) [1] | p62 activation and oligomerization, delivery to autophagosome, autophagy activity (p62 and LC3 puncta, local coexistence) [2] | autophagy activity (level of LC3) [3] | p62 protein oligomerization activity (monomer, oligomers and high-molecular aggregates) [4] |
| --- | --- | --- | --- | --- |
| OCCNCc1ccc(OCc2ccccc2)c(OCCc2ccccc2)c1 [YTK-1205, 2-((4-(benzyloxy)-3-phenethoxybenzyl)amino)ethan-1-ol] | increasing the autophagy activity | allow the activation and oligomerization of p62 proteins, and then show the efficacy of delivering them to autophagosome and simultaneously increasing autophagy activity |  |  |
| OCCNCc1ccc(OCc2ccccc2)c(OCCCc2ccccc2)c1 [YTK-1305, 2-((4-(benzyloxy)-3-(3-phenylpropoxy)benzyl)amino)ethan-1-ol] | increasing the autophagy activity | allow the activation and oligomerization of p62 proteins, and then show the efficacy of delivering them to autophagosome and simultaneously increasing autophagy activity |  |  |
| OCCNCc1ccc(OCc2ccc(F)cc2)c(OCc2ccc(F)cc2)c1 [YT-5-2, 2-((3,4-bis((4-fluorobenzyl)oxy)benzyl)amino)ethan-1-ol] |  | allow the activation and oligomerization of p62 proteins, and then show the efficacy of delivering them to autophagosome and simultaneously increasing autophagy activity | increasing the autophagy activity | increasing the p62 protein oligomerization activity |
| OCCNCc1ccc(OCCc2ccccc2)c(OCCc2ccccc2)c1 [YTK-2205, 2-((3,4-diphenethoxybenzyl)amino)ethan-1-ol] | increasing the autophagy activity | allow the activation and oligomerization of p62 proteins, and then show the efficacy of delivering them to autophagosome and simultaneously increasing autophagy activity |  |  |
| OCCNCc1cccc(OCc2ccccc2)c1 [YTK-105, 2-((3-(benzyloxy)benzyl)amino)ethan-1-ol] | increasing the autophagy activity | allow the activation and oligomerization of p62 proteins, and then show the efficacy of delivering them to autophagosome and simultaneously increasing autophagy activity | increasing the autophagy activity |  |
| N=C(N)NCCNCc1cccc(OCCc2ccccc2)c1 [YTK-207] |  | allow the activation and oligomerization of p62 proteins, and then show the efficacy of delivering them to autophagosome and simultaneously increasing autophagy activity | increasing the autophagy activity | increasing the p62 protein oligomerization activity |
| N=C(N)NCCNCc1cccc(OCc2ccccc2)c1 [YTK-107, 1-(2-((3-(benzyloxy)benzyl)amino)ethyl)guanidine] |  | allow the activation and oligomerization of p62 proteins, and then show the efficacy of delivering them to autophagosome and simultaneously increasing autophagy activity | increasing the autophagy activity | increasing the p62 protein oligomerization activity |
| OCCNCc1cccc(OCc2ccc(F)cc2)c1 [YT 5-8, 2-((3-((4-fluorobenzyl)oxy)benzyl)amino)ethan-1-ol] | increasing the autophagy activity |  |  | increasing the p62 protein oligomerization activity |
| OCCNCc1cccc(OCc2ccc(Cl)cc2)c1 [YT 5-7, 2-((3-((4-chlorobenzyl)oxy)benzyl)amino)ethan-1-ol] | increasing the autophagy activity |  |  | increasing the p62 protein oligomerization activity |
| OCCNCc1ccc(OCc2ccccc2)c(OCc2ccccc2)c1 [YTK-1105, 2-((3,4-bis(benzyloxy)benzyl)amino)ethan-1-ol] | increasing the autophagy activity |  |  |  |
| OCCNCc1ccc(OCCCc2ccccc2)c(OCCCc2ccccc2)c1 [YTK-3305, 2-((3,4-bis(3-phenylpropoxy)benzyl)amino)ethan-1-ol] | increasing the autophagy activity | allow the activation and oligomerization of p62 proteins, and then show the efficacy of delivering them to autophagosome and simultaneously increasing autophagy activity |  |  |
| OCCNCc1ccc(OCc2ccc(Cl)cc2)c(OCc2ccc(Cl)cc2)c1 [YT-5-1, 2-((3,4-bis((4-chlorobenzyl)oxy)benzyl)amino)ethan-1-ol] |  | allow the activation and oligomerization of p62 proteins, and then show the efficacy of delivering them to autophagosome and simultaneously increasing autophagy activity | increasing the autophagy activity | increasing the p62 protein oligomerization activity |
